From ChEMBL document CHEMBL1138068 (J Med Chem, 2006)
The source made the active and inactive calls. The calls are words filed in the database; no cut-off is given here.

Columns and labels:
[1] = Clearance in monkey at 3 mg/kg, iv; format: ADME, organism-based, Macaca mulatta; set-up: dose 3 mg/kg, route intravenous; details: rhesus monkey, in vivo
[2] = Cmax in monkey at 3 mg/kg, iv; format: ADME, organism-based, Macaca mulatta; set-up: dose 3 mg/kg, route intravenous; details: rhesus monkey, in vivo
D(1A) dopamine receptor = D(1A) dopamine receptor (Homo sapiens, UniProt P21728); assay: Binding affinity to D1 receptor
D(1A) dopamine receptor, sequence (P21728 whole entry): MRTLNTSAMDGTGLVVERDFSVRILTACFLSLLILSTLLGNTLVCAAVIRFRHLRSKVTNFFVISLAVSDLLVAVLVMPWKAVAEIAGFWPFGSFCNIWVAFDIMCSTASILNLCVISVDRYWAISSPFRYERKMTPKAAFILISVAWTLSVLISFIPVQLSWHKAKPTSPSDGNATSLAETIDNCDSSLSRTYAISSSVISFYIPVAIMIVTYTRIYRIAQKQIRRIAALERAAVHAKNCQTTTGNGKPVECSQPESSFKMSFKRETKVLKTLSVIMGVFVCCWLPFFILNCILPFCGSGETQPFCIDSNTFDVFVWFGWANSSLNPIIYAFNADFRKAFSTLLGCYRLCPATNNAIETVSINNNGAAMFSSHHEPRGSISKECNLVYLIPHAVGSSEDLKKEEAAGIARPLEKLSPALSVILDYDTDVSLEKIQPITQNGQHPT

[3] = Oral bioavailability in monkey at 3 mg/kg, po; format: ADME, organism-based, Macaca mulatta; details: rhesus monkey, in vivo
Cytochrome P450 3A4 = Cytochrome P450 3A4 (Homo sapiens, UniProt P08684); assay: Inhibition of CYP3A4; format: ADME
[4] = Tmax in rat at 10 mg/kg, po; format: ADME, organism-based; set-up: dose 10 mg/kg, route oral; details: in vivo
D(4) dopamine receptor = D(4) dopamine receptor (Homo sapiens, UniProt P21917); assay: Binding affinity to D4 receptor
D(4) dopamine receptor, sequence (P21917 whole entry): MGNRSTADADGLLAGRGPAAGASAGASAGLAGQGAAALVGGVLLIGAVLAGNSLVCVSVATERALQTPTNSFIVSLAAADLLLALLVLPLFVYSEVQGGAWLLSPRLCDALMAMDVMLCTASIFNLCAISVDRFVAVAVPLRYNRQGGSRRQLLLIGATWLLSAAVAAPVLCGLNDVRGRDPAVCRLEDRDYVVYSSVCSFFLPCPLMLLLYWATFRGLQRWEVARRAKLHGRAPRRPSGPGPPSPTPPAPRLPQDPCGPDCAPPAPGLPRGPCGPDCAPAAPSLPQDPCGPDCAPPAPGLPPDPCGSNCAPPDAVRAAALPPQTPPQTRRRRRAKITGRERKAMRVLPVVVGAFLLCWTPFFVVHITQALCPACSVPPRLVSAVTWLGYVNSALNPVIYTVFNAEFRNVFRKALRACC

[5] = molecular target: 5-hydroxytryptamine receptor 3A (Cavia porcellus) (UniProt O70212); assay: Antagonist activity against 5HT3 receptor assessed as inhibition of 5HT-induced contraction of guinea pig ileum; format: functional, tissue-based
5-hydroxytryptamine receptor 3A (Cavia porcellus), sequence (O70212 whole entry): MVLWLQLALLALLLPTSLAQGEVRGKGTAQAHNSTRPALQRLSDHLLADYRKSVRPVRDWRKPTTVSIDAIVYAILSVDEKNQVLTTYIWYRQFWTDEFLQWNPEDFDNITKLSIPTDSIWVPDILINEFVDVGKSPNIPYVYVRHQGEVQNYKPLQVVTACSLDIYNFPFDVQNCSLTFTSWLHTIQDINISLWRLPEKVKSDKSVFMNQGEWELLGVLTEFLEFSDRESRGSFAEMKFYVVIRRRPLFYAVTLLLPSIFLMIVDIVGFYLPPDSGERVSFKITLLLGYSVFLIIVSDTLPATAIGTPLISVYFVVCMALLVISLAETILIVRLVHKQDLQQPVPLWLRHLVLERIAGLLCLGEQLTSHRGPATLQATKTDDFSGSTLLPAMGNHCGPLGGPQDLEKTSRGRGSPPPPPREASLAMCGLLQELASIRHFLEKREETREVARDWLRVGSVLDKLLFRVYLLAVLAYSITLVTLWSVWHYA

Histamine H1 receptor = Histamine H1 receptor (Homo sapiens, UniProt P35367); assay: Binding affinity to histamine H1 receptor
[6] = molecular target: Serotonin 3 (5-HT3) receptor; assay: Binding affinity to 5HT3 receptor; format: protein-complex assay, Homo sapiens
[7] = Volume of distribution in rat at 3 mg/kg, iv; format: ADME, organism-based; set-up: dose 3 mg/kg, route intravenous; details: in vivo, read-out: Vss
[8] = Oral bioavailability in rat at 10 mg/kg, po; format: ADME, organism-based; details: in vivo
[9] = molecular target: Serotonin 2 (5-HT2) receptor (Homo sapiens, UniProt P41595+P28223+P28335); assay: Binding affinity to 5HT2 receptor; format: protein assay
[10] = molecular target: Adrenergic receptor alpha-2 (Homo sapiens, UniProt P08913+P18825+P18089); assay: Binding affinity to adrenergic alpha2 receptor; format: protein assay
D(2) dopamine receptor = D(2) dopamine receptor (Homo sapiens, UniProt P14416); assay: Binding affinity to D2 receptor
[11] = Oral bioavailability in monkey at 10 mg/kg, po; format: ADME, organism-based, Macaca mulatta; details: rhesus monkey, in vivo
Cytochrome P450 2D6 = Cytochrome P450 2D6 (Homo sapiens, UniProt P10635); assay: Inhibition of CYP2D6; format: ADME
Cytochrome P450 2D6, sequence (P10635 whole entry): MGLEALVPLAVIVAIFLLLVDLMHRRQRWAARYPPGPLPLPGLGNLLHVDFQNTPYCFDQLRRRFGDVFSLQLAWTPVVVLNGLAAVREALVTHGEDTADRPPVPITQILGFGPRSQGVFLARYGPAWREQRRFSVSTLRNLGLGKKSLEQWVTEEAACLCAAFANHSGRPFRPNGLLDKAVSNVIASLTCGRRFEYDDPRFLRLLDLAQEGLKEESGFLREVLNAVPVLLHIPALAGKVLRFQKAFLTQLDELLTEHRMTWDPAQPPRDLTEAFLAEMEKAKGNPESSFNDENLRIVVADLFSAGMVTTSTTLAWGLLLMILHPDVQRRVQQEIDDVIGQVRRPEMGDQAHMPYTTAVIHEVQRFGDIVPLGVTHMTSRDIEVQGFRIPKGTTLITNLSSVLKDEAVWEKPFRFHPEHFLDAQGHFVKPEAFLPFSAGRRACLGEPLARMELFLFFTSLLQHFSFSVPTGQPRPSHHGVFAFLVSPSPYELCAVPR

[12] = Cmax in monkey at 3 mg/kg, po; format: ADME, organism-based, Macaca mulatta; set-up: dose 3 mg/kg, route oral; details: rhesus monkey, in vivo
[13] = Tmax in monkey at 3 mg/kg, iv; format: ADME, organism-based, Macaca mulatta; set-up: dose 3 mg/kg, route intravenous; details: rhesus monkey, in vivo
Cytochrome P450 2C9 = Cytochrome P450 2C9 (Homo sapiens, UniProt P11712); assay: Inhibition of CYP2C9; format: ADME
[14] = Cmax in monkey at 1 mg/kg, po; format: ADME, organism-based, Macaca mulatta; set-up: dose 1 mg/kg, route oral; details: rhesus monkey, in vivo
[15] = Tmax in monkey at 10 mg/kg, po; format: ADME, organism-based, Macaca mulatta; set-up: dose 10 mg/kg, route oral; details: rhesus monkey, in vivo
[16] = Clearance in rat at 3 mg/kg, iv; format: ADME, organism-based; set-up: dose 3 mg/kg, route intravenous; details: in vivo
[17] = Cmax in monkey at 10 mg/kg, po; format: ADME, organism-based, Macaca mulatta; set-up: dose 10 mg/kg, route oral; details: rhesus monkey, in vivo
[18] = Half life in rat at 30 mg/kg, po; format: ADME, organism-based; set-up: dose 30 mg/kg, route oral; details: in vivo
[19] = Cmax in rat at 30 mg/kg, po; format: ADME, organism-based; set-up: dose 30 mg/kg, route oral; details: in vivo
[20] = molecular target: 5-hydroxytryptamine receptor 1A (Homo sapiens, UniProt P08908); assay: Binding affinity to 5HT1A receptor
D(3) dopamine receptor = D(3) dopamine receptor (Homo sapiens, UniProt P35462); assay: Binding affinity to D3 receptor
D(3) dopamine receptor, sequence (P35462 whole entry): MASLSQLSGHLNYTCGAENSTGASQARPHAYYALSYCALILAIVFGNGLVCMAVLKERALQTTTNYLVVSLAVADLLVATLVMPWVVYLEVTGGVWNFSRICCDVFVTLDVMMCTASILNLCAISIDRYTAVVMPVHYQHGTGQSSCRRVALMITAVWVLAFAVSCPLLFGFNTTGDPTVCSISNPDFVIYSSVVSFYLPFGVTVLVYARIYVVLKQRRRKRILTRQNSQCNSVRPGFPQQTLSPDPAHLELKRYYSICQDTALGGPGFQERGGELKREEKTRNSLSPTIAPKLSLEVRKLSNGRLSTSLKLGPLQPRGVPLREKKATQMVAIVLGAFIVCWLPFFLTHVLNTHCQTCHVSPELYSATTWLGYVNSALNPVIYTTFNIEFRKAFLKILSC

[21] = AUC (0-infinity) in monkey at 3 mg/kg, po; format: ADME, organism-based, Macaca mulatta; set-up: time infinity, dose 3 mg/kg, route oral; details: rhesus monkey, plasma
Rattus norvegicus [22] = assay: Reverse activity against scopolamine-induced impairment of cognitive performance in Wistar rat at 3 mg/kg, po by 8-arm radial maze task method; format: functional, organism-based; set-up: dose 3 mg/kg
[23] = Half life in rat at 10 mg/kg, po; format: ADME, organism-based; set-up: dose 10 mg/kg, route oral; details: in vivo
[24] = Permeability in rat assessed as ratio of concentration in brain to plasma at 10 mg/kg, po; format: ADME, organism-based; set-up: dose 10 mg/kg, route oral; details: brain and plasma, read-out: BBR
Rattus norvegicus [25] = assay: Increase in extracellular dopamine level in Wistar rat medial prefrontal cortex at 30 mg/kg, po; format: functional, organism-based; set-up: dose 30 mg/kg
[26] = molecular target: Glutamate receptor ionotropic AMPA (Homo sapiens, UniProt P42261+P42262+P42263+P48058); assay: Binding affinity to AMPA receptor; format: protein-complex assay
[27] = AUC (0-infinity) in monkey at 3 mg/kg, iv; format: ADME, organism-based, Macaca mulatta; set-up: dose 3 mg/kg, route intravenous, time infinity; details: rhesus monkey, plasma
[28] = Tmax in rat at 30 mg/kg, po; format: ADME, organism-based; set-up: dose 30 mg/kg, route oral; details: in vivo
[29] = Half life in monkey at 1 mg/kg, po; format: ADME, organism-based, Macaca mulatta; set-up: dose 1 mg/kg, route oral; details: rhesus monkey, in vivo
[30] = molecular target: Adrenergic receptor alpha-1 (Homo sapiens, UniProt P35348+P25100+P35368); assay: Binding affinity to adrenergic alpha-1 receptor; format: protein assay
[31] = Half life in rat at 3 mg/kg, iv; format: ADME, organism-based; set-up: dose 3 mg/kg, route intravenous; details: in vivo
[32] = Half life in monkey at 3 mg/kg, iv; format: ADME, organism-based, Macaca mulatta; set-up: dose 3 mg/kg, route intravenous; details: rhesus monkey, in vivo
[33] = molecular target: Glutamate [NMDA] receptor; assay: Binding affinity to NMDA receptor glycine site; format: protein-complex assay, Homo sapiens
Cytochrome P450 1A2 = Cytochrome P450 1A2 (Homo sapiens, UniProt P05177); assay: Inhibition of CYP1A2; format: ADME
Cytochrome P450 1A2, sequence (P05177 whole entry): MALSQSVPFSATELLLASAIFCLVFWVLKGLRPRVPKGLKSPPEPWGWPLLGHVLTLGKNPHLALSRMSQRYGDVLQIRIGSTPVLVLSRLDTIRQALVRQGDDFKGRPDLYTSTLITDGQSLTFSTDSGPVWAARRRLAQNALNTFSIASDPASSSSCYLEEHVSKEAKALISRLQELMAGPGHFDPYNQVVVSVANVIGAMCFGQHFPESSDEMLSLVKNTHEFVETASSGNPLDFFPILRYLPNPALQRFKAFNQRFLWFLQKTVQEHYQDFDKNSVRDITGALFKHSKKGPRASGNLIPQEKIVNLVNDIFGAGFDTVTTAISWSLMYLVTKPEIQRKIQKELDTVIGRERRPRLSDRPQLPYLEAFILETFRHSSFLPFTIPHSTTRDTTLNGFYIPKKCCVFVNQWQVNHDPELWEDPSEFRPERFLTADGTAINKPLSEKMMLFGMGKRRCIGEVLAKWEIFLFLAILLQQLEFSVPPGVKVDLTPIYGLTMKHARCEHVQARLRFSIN

[34] = Oral bioavailability in monkey at 1 mg/kg, po; format: ADME, organism-based, Macaca mulatta; details: rhesus monkey, in vivo
[35] = AUC (0-infinity) in rat at 10 mg/kg, po; format: ADME, organism-based; set-up: time infinity, dose 10 mg/kg, route oral; details: plasma
Cytochrome P450 2C19 = Cytochrome P450 2C19 (Homo sapiens, UniProt P33261); assay: Inhibition of CYP2C19; format: ADME
Cytochrome P450 2C19, sequence (P33261 whole entry): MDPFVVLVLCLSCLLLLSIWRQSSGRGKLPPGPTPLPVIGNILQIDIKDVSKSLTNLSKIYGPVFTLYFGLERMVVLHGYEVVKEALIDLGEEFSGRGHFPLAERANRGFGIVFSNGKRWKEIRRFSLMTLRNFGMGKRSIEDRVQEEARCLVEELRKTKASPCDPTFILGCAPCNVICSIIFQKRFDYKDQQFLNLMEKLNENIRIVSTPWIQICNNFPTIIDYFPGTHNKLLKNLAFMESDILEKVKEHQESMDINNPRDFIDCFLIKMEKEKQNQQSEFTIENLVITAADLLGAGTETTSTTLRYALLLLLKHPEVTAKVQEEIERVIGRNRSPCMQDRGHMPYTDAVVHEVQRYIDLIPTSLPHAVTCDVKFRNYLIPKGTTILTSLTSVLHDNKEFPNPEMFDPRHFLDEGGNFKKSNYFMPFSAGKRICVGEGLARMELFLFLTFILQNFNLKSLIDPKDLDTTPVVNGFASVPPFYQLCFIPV

Histamine H3 receptor = Histamine H3 receptor (Homo sapiens, UniProt Q9Y5N1); assay: Binding affinity to histamine H3 receptor
Histamine H3 receptor, sequence (Q9Y5N1 whole entry): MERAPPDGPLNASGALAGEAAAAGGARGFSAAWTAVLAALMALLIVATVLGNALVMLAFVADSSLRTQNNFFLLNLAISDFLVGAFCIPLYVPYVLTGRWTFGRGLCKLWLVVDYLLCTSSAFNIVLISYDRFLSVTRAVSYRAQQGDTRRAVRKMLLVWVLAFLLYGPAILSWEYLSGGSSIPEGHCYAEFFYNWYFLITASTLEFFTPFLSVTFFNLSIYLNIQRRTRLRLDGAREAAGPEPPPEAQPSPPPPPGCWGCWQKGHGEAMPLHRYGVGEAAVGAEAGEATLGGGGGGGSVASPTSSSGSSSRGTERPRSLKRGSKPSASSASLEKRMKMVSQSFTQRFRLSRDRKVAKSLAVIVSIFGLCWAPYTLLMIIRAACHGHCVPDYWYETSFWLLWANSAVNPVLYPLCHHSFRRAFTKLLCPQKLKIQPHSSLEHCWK

Rattus norvegicus [36] = assay: Reverse activity against scopolamine-induced impairment of cognitive performance in Wistar rat at 10 mg/kg, po by 8-arm radial maze task method; format: functional, organism-based; set-up: dose 10 mg/kg
[37] = molecular target: Neuronal acetylcholine receptor; alpha4/beta2 (Rattus norvegicus, UniProt P09483+P12390); assay: Inhibition of [3H]Cytisine binding to alpha-4-beta-2 nACh receptor in rat cerebral cortex membrane; format: cell membranes
[38] = Cmax in rat at 10 mg/kg, po; format: ADME, organism-based; set-up: dose 10 mg/kg, route oral; details: in vivo
[39] = molecular target: Muscarinic acetylcholine receptor; assay: Binding affinity to muscarinic receptor; format: protein assay, Homo sapiens
[40] = AUC (0-infinity) in monkey at 1 mg/kg, po; format: ADME, organism-based, Macaca mulatta; set-up: time infinity, dose 1 mg/kg, route oral; details: rhesus monkey, plasma
[41] = molecular target: Neuronal acetylcholine receptor subunit alpha-7 (Rattus norvegicus, UniProt Q05941); assay: Displacement of [125I]alpha-BTX from alpha-7 nAChR in rat hippocampus membrane; format: cell membranes
Neuronal acetylcholine receptor subunit alpha-7, sequence (Q05941 whole entry): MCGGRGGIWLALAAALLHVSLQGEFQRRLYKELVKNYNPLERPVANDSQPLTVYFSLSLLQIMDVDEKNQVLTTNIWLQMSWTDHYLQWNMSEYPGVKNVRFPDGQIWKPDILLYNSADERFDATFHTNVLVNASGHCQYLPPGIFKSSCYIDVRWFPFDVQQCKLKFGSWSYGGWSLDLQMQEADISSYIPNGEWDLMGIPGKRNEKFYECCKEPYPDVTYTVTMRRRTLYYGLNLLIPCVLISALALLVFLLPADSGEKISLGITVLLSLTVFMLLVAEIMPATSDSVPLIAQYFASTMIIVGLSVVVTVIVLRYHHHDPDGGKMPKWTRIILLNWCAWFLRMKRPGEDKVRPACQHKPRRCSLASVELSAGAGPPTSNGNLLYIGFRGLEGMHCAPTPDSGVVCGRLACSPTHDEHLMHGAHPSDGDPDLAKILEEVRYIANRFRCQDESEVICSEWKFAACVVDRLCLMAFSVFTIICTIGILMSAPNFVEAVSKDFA

Adrenergic receptor beta = Adrenergic receptor beta (Homo sapiens, UniProt P08588+P07550+P13945); assay: Binding affinity to adrenergic beta receptor; format: protein assay
Rattus norvegicus [42] = assay: Effect on MK-801-induced sensory gating in Wistar rat at 1 mg/kg, sc; format: functional, organism-based; set-up: dose 1 mg/kg
[43] = Tmax in monkey at 3 mg/kg, po; format: ADME, organism-based, Macaca mulatta; set-up: dose 3 mg/kg, route oral; details: rhesus monkey, in vivo
[44] = AUC (0-infinity) in rat at 30 mg/kg, po; format: ADME, organism-based; set-up: time infinity, dose 30 mg/kg, route oral; details: plasma
[45] = molecular target: Neuronal acetylcholine receptor subunit alpha-7 (Homo sapiens) (UniProt P36544); assay: Activity at alpha-7 nAChR assessed as stimulation of relative inward current in cultured hippocampal neurons relative to choline; format: functional, tissue-based; details: Hippocampus
Neuronal acetylcholine receptor subunit alpha-7 (Homo sapiens), sequence (P36544 whole entry): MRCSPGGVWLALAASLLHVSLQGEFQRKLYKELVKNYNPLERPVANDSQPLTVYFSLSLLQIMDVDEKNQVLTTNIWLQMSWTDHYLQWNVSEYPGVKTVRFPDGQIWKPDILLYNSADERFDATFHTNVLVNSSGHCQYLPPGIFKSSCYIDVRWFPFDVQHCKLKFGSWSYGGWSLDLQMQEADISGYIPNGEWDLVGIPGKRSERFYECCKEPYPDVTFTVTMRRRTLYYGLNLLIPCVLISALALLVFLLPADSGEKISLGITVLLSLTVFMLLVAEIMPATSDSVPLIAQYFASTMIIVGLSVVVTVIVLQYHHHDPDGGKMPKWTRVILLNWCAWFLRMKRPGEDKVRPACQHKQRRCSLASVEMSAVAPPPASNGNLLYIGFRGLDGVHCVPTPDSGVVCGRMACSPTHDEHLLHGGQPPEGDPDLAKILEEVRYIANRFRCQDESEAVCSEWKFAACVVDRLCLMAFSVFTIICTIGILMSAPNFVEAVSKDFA

[46] = Volume of distribution in monkey at 3 mg/kg, iv; format: ADME, organism-based, Macaca mulatta; set-up: dose 3 mg/kg, route intravenous; details: rhesus monkey, in vivo, read-out: Vss
[47] = Half life in monkey at 10 mg/kg, po; format: ADME, organism-based, Macaca mulatta; set-up: dose 10 mg/kg, route oral; details: rhesus monkey, in vivo
[48] = Half life in monkey at 3 mg/kg, po; format: ADME, organism-based, Macaca mulatta; set-up: dose 3 mg/kg, route oral; details: rhesus monkey, in vivo
[49] = molecular target: Glutamate [NMDA] receptor; assay: Binding affinity to NMDA receptor PCP site; format: protein-complex assay, Homo sapiens
[50] = Oral bioavailability in rat at 30 mg/kg, po; format: ADME, organism-based; details: in vivo
Rattus norvegicus [51] = assay: Increase in extracellular dopamine level in Wistar rat medial prefrontal cortex at 10 mg/kg, po; format: functional, organism-based; set-up: dose 10 mg/kg
[52] = AUC (0-infinity) in monkey at 10 mg/kg, po; format: ADME, organism-based, Macaca mulatta; set-up: time infinity, dose 10 mg/kg, route oral; details: rhesus monkey, plasma
[53] = Tmax in monkey at 1 mg/kg, po; format: ADME, organism-based, Macaca mulatta; set-up: dose 1 mg/kg, route oral; details: rhesus monkey, in vivo

## Cc1coc2ccc(N3C[C@@]4(CN5CCC4CC5)OC3=O)cc12
[1]
  clearance: 70.2 mL/min/kg
[2]
  Cmax: 288 ng/mL
D(1A) dopamine receptor
  IC50: > 10 µM
[3]
  bioavailability: 57.2%
Cytochrome P450 3A4
  Activity: Not Active
[4]
  Tmax: 26.4 min
D(4) dopamine receptor
  IC50: > 10 µM
[5]
  Activity: Active
Histamine H1 receptor
  IC50: > 10 µM
[6]
  IC50: 10 nM
[7]
  Vd: 7.59 L/kg
[8]
  bioavailability: 10.5%
[9]
  IC50: > 10 µM
[10]
  IC50: > 10 µM
D(2) dopamine receptor
  IC50: > 10 µM
[11]
  bioavailability: 82.8%
Cytochrome P450 2D6
  IC50: > 30 µM
[12]
  Cmax: 75.5 ng/mL
[13]
  Tmax: 21.6 min
Cytochrome P450 2C9
  Activity: Not Active
[14]
  Cmax: 9.1 ng/mL
[15]
  Tmax: 2.3 h
[16]
  clearance: 83.3 mL/min/kg
[17]
  Cmax: 384 ng/mL
[18]
  half-life: 102 min
[19]
  Cmax: 618 ng/mL
[20]
  IC50: > 10 µM
D(3) dopamine receptor
  IC50: > 10 µM
[21]
  AUC(0-inf): 387 ng·h/mL
Rattus norvegicus [22]
  Activity: Dose-dependent effect
[23]
  half-life: 180 min
[24]
  Kp: 10.2
Rattus norvegicus [25]
  Activity: Active
[26]
  IC50: > 10 µM
[27]
  AUC(0-inf): 732 ng·h/mL
[28]
  Tmax: 22.8 min
[29]
  half-life: 252 min
[30]
  IC50: > 10 µM
[31]
  half-life: 198 min
[32]
  half-life: 114 min
[33]
  IC50: > 10 µM
Cytochrome P450 1A2
  Activity: Not Active
[34]
  bioavailability: 25.8%
[35]
  AUC(0-inf): 225 ng·h/mL
Cytochrome P450 2C19
  Activity: Not Active
Histamine H3 receptor
  IC50: > 10 µM
Rattus norvegicus [36]
  Activity: Dose-dependent effect
[37]
  IC50: > 10 µM
[38]
  Cmax: 120 ng/mL
[39]
  IC50: > 10 µM
[40]
  AUC(0-inf): 63 ng·h/mL
[41]
  Ki: 3 nM
Adrenergic receptor beta
  IC50: > 10 µM
Rattus norvegicus [42]
  Activity: Active
[43]
  Tmax: 3.3 h
[44]
  AUC(0-inf): 1010 ng·h/mL
[45]; filed as partial agonist
  Activity: Partial agonist
[46]
  Vd: 10.7 L/kg
[47]
  half-life: 360 min
[48]
  half-life: 324 min
[49]
  IC50: > 10 µM
[50]
  bioavailability: 17.3%
Rattus norvegicus [51]
  Activity: Active
[52]
  AUC(0-inf): 2020 ng·h/mL
[53]
  Tmax: 2 h

## O=C1O[C@]2(CN3CCC2CC3)CN1c1ccc2occc2c1
Cytochrome P450 2D6
  IC50: > 30 µM
[41]
  Ki: 19 nM
[45]; filed as agonist
  Activity: Agonist

## Cc1oc2ccc(N3C[C@]4(CN5CCC4CC5)OC3=O)cc2c1C
Cytochrome P450 2D6
  IC50: > 30 µM
[41]
  Ki: 4 nM

## O=C1O[C@@]2(CN3CCC2CC3)CN1c1ccc2c(c1)CCC2
[41]
  Ki: 200 nM

## CCc1coc2ccc(N3C[C@@]4(CN5CCC4CC5)OC3=O)cc12
Cytochrome P450 2D6
  IC50: 21 µM
[41]
  Ki: 8 nM

## O=C1NCC2(CN3CCC2CC3)O1 (single isomer, unassigned)
[45]; filed as agonist
  Activity: Agonist
